Structures can show the parent of a compound that is named as a salt. Where two headings read alike, the source gives them in different places.
Assays:
[1] = tested on: human EPO production, Hep3B cells; test: Human EPO production activity in Hep3B cells (EPO-ELISA of culture supernatant); assay type: cell-based; conditions: for EC50: 24 hr incubation, values consisting solely of numbers, read-out: EC50 (μM) in vitro, human EPO production activity; for production activity (%) at 30 μM in vitro, human EPO: 24 hr, values containing %, relative to maximum production
Experimental: The activity of the test compound on human EPO production was measured using Hep3B (AMC) established from human liver-derived cell line.
Hep3B cells were cultured in Eagle-MEM medium containing 10% fetal bovine serum, and the test compound was diluted with dimethyl sulfoxide (DMSO).
Hep3B cells were cultured in a 96-well plate, and a test compound was added at each concentration 24 hr later. After incubation at 37° C. for 24 hr, the culture supernatant was collected. The concentration of human EPO produced in the culture supernatant was measured using a human EPO-ELISA kit (manufactured by StemCell Technologies, 01630) according to the manufacturer's explanation, and the human EPO production activity (%) of the test compound was calculated based on the maximum value of production under the above conditions and the value without addition of the test compound. […] In these Tables, the values consisting solely of numbers show EC50 (μM) and those containing % show human EPO production activity (%) at […].

human PHD2 = molecular target: T1, human PHD2 (Homo sapiens, UniProt Q9GZT9); test: Measurement of human PHD inhibitory activity (TR-FRET, hydroxylation of HIF-1α partial peptide); assay type: biochemical; conditions: human PHD2 enzyme 1 nM, 25° C. 30 min, values consisting solely of numbers
T1 construct: made in house; host or cells: Sf9 insect cells (baculovirus, pVL1393 vector)
T1 sequence (Q9GZT9 whole entry): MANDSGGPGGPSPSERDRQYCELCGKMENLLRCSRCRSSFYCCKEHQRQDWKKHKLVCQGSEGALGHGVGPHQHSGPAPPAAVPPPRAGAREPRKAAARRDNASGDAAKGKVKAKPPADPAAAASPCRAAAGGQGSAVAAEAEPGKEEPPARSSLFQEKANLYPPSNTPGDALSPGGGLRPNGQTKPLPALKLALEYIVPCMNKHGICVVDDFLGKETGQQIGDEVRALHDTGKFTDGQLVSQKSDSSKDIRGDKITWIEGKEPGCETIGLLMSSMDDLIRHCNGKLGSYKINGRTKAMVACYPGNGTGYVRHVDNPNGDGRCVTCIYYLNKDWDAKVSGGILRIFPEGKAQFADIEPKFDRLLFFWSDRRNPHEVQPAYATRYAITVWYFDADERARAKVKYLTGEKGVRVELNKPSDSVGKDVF
Experimental: Human PHD2 was expressed in insect cell (Sf9 cell). […] The vector and baculovirus were cotransfected into Sf9, and human PHD2 expression baculovirus was isolated in Sf9. By using the virus, human PHD2-expressed cell was prepared. […] The cell lysate was flowed into a column filled with ANTI-FLAG M2 Affinity Gel Freezer Safe (SIGMA), washed, and the N-terminal FLAG-tag-added human PHD2 was eluted and collected.
VBC complex (VHL/Elongin B/Elongin C) was expressed in Escherichia coli (BL21(DE3)). […] After these expression vectors were transfected into Escherichia coli (BL21(DE3)), Escherichia coli was cultured at 37° C. in the medium containing IPTG. The collected Escherichia coli was disrupted by sonication and flowed into a column filled with Ni-NTA superflow (QIAGEN), washed, and the product was eluted and collected. The eluate was flowed into a column filled with Glutathione Sepharose 4B, washed, and the product was eluted and collected. […]
As for human PHD2 enzyme activity, hydroxylation of proline residue contained in the 19 residues of the partial peptide based on the sequence of HIF-1α as a substrate was measured by TR-FRET (Time-Resolved Fluorescence Resonance Energy Transfer) method.
A test compound and a substrate solution were added to a 96-well plate. The reaction was started by addition of a human PHD2 enzyme solution (final concentration 1 nM) to the reaction system. After incubation at 25° C. for 30 min, a stop solution containing EDTA was added, and a VBC complex solution containing europium (Eu) and Xlent was added, and the amount of hydroxylated proline residue was quantified by time-resolved fluorescence spectroscopy. The time-resolved fluorescence in each well was measured, and the human PHD inhibitory activity (%) of the test compound was calculated based on the values of enzyme non-addition well and test compound non-addition well.

[2] = read-out: IC50 (μM) in vitro, human PHD inhibitory activity

Row | SMILES | EC50 ([1]; Homo sapiens) [µM] | IC50 (human PHD2; [2]) [µM] | production activity (%) at 30 μM in vitro, human EPO [1] [%] | also measured
1 | CC(C)(C)CCc1cc(O)c(C(=O)NCC(=O)O)c2ncnn12 [Example 24, {[5-(3,3-dimethylbutyl)-7-hydroxy[1,2,4]triazolo[1,5-a]pyridine-8-carbonyl]amino}acetic acid hydrochloride] | 5.4 | 0.57 |  | 
2 | O=C(O)CNC(=O)c1c(O)cc(CCC2CCCC2)c2ncnn12 [Example 99, {[8-(2-cyclopentylethyl)-6-hydroxy[1,2,4]triazolo[1,5-a]pyridine-5-carbonyl]amino} acetic acid hydrochloride] | 20.2 | 0.87 |  | 
3 | O=C(O)CNC(=O)c1c(O)cc(-c2cc(F)cc(F)c2F)n2ncnc12 [Example 76, {[7-hydroxy-5-(2,3,5-trifluorophenyl) [1,2,4]triazolo[1,5-a]pyridine-8-carbonyl]amino} acetic acid hydrochloride] | 18 | 0.22 |  | 
4 | O=C(O)CNC(=O)c1c(O)cc(-c2ccc(F)c(F)c2)n2ncnc12 [Example 25, {[5-(3,4-difluorophenyl)-7-hydroxy[1,2,4]triazolo[1,5-a]pyridine-8-carbonyl]amino}acetic acid hydrochloride] | 14.1 | 0.25 |  | 
5 | O=C(O)CNC(=O)c1c(O)cc(-c2ccc(F)c(C(F)(F)F)c2)n2ncnc12 [Example 1, {[5-(4-fluoro-3-trifluoromethylphenyl)-7-hydroxy[1,2,4]triazolo[1,5-a]pyridine-8-carbonyl]amino}acetic acid hydrochloride] | 9.9 | 0.42 |  | 
6 | O=C(O)CNC(=O)c1c(O)cc(CC2CCCCC2)n2ncnc12 [Example 28, [(5-cyclohexylmethyl-7-hydroxy[1,2,4]triazolo[1,5-a]pyridine-8-carbonyl)amino]acetic acid hydrochloride] | 13.9 | 1.38 |  | 
7 | Cl.O=C(O)CNC(=O)c1c(O)cc(CCc2cccc(C(F)(F)F)c2)c2ncnn12 [Example 101, ({6-hydroxy-8-[2-(3-trifluoromethyl phenyl)ethyl] [1,2,4]triazolo[1,5-a]pyridine-5-carbonyl}amino) acetic acid hydrochloride] |  | 0.37 | 6 | 
8 | Cl.O=C(O)CNC(=O)c1c(O)ccn2c(CCC3CCCCC3)nnc12 [Example 115, {[3-(2-cyclohexylethyl)-7-hydroxy[1,2,4]triazolo[4,3-a]pyridine-8-carbonyl]amino} acetic acid hydrochloride] |  | 1.8 | 0 | 
9 | O=C(O)CNC(=O)c1c(O)cc(-c2cc(F)cc(C(F)(F)F)c2)n2ncnc12 [Example 31, {[5-(3-fluoro-5-trifluoromethyl-phenyl)-7-hydroxy[1,2,4]triazolo[1,5-a]pyridine-8-carbonyl]amino}acetic acid hydrochloride] | 12.1 | 0.8 |  | 
10 | C[C@@H](NC(=O)c1c(O)cc(-c2cc(F)cc(F)c2)n2ncnc12)C(=O)O [Example 64, (R)-2-{[5-(3,5-difluorophenyl)-7-hydroxy[1,2,4]triazolo[1,5-a]pyridine-8-carbonyl]amino} propionic acid hydrochloride] |  | 6.88 | 0 | 
11 | O=C(O)CNC(=O)c1c(O)cc(CCc2ccccc2)n2nc(C3CC3)nc12 [Example 15, [(2-cyclopropyl-7-hydroxy-5-phenethyl[1,2,4]triazolo[1,5-a]pyridine-8-carbonyl)amino]acetic acid hydrochloride] | 29.1 | 1.8 |  | 
12 | Cc1nnc2c(C(=O)NCC(=O)O)c(O)c(-c3ccccc3)cn12.Cl [Example 112, [(7-hydroxy-3-methyl-6-phenyl[1,2,4]triazolo[4,3-a]pyridine-8-carbonyl)amino] acetic acid hydrochloride] |  | 3.09 | 0 | 
13 | CC(C)(NC(=O)c1c(O)cc(-c2cc(F)cc(F)c2)n2ncnc12)C(=O)O [Example 68, 2-{[5-(3,5-difluorophenyl)-7-hydroxy[1,2,4]triazolo[1,5-a]pyridine-8-carbonyl]amino}-2-methylpropionic acid hydrochloride] |  | 5.94 | 0 | 
14 | CCCc1c(Cl)c(O)c(C(=O)NCC(=O)O)c2ncnn12.Cl [Example 81, [(6-chloro-7-hydroxy-5-propyl[1,2,4]triazolo[1,5-a]pyridine-8-carbonyl)amino] acetic acid hydrochloride] |  | 6.09 | 33 | 
15 | O=C(O)CNC(=O)c1c(O)cc(-c2cccc(F)c2F)n2ncnc12 [Example 59, {[5-(2,3-difluorophenyl)-7-hydroxy[1,2,4]triazolo[1,5-a]pyridine-8-carbonyl]amino} acetic acid hydrochloride] |  | 0.26 | 49 | 
16 | CC(C)c1cc(O)c(C(=O)NCC(=O)O)c2ncnn12 [Example 35, [(7-hydroxy-5-isopropyl[1,2,4]triazolo[1,5-a]pyridine-8-carbonyl)amino]acetic acid hydrochloride] |  | 0.88 | 43 | 
17 | O=C(O)CNC(=O)c1c(O)cc(-c2ccc(Cl)cc2F)n2ncnc12 [Example 62, {[5-(4-chloro-2-fluorophenyl)-7-hydroxy[1,2,4]triazolo[1,5-a]pyridine-8-carbonyl]amino} acetic acid hydrochloride] | 10.1 | 0.28 |  | 
18 | O=C(O)CNC(=O)c1c(O)cc(CCc2ccccc2)n2ncnc12 [Example 116, [(7-hydroxy-5-phenethyl[1,2,4]triazolo[1,5-a]pyridine-8-carbonyl)amino] acetic acid] |  |  |  | EC50 [1]: 5.6 µM; IC50 (human PHD2; IC50 (μM) in vitro, human PHD inhibitory activity): 0.18 µM
19 | O=C(O)CNC(=O)c1c(O)cc(-c2cc(F)cc(C3CC3)c2)n2ncnc12 [Example 52, {[5-(3-cyclopropyl-5-fluorophenyl)-7-hydroxy[1,2,4]triazolo[1,5-a]pyridine-8-carbonyl]amino} acetic acid hydrochloride] | 10.4 | 0.89 |  | 
20 | O=C(O)CNC(=O)c1c(O)cc(CCc2ccc(C(F)(F)F)cc2)n2ncnc12 [Example 16, ({7-hydroxy-5-[2-(4-trifluoromethyl-phenyl)ethyl][1,2,4-]triazolo[1,5-a]pyridine-8-carbonyl}amino)acetic acid hydrochloride] | 7 | 0.32 |  | 
21 | O=C(O)CNC(=O)c1c(O)cc(-c2cc(F)cc(C(F)(F)F)c2)n2ncnc12 [Example 118, {[5-(3-fluoro-5-trifluoromethyl phenyl)-7-hydroxy[1,2,4]triazolo[1,5-a]pyridine-8-carbonyl]amino} acetic acid] |  | 0.64 |  | 
22 | O=C(O)CNC(=O)c1c(O)cc(-c2cc(F)cc(C3CC3)c2)n2ncnc12 [Example 122, {[5-(3-cyclopropyl-5-fluorophenyl)-7-hydroxy[1,2,4]triazolo[1,5-a]pyridine-8-carbonyl]amino} acetic acid] |  | 0.96 |  | 
23 | O=C(O)CNC(=O)c1c(O)cc(-c2ccc(F)c(C(F)(F)F)c2)n2ncnc12 [Example 121, {[5-(4-fluoro-3-trifluoromethyl phenyl)-7-hydroxy[1,2,4]triazolo[1,5-a]pyridine-8-carbonyl]amino} acetic acid] |  | 0.33 |  | 
24 | O=C(O)CNC(=O)c1c(O)cc(CCc2ccc(F)cc2)n2ncnc12 [Example 17, ({5-[2-(4-fluorophenyl)ethyl]-7-hydroxy[1,2,4]triazolo[1,5-a]pyridine-8-carbonyl}amino)acetic acid hydrochloride] |  |  |  | EC50 ([1]; Homo sapiens, Hep3B, 24 h): 8.8 µM
25 | O=C(O)CNC(=O)c1c(O)ccn2ncnc12 [Example 12, [(7-hydroxy[1,2,4]triazolo[1,5-a]pyridine-8-carbonyl)amino]acetic acid hydrochloride] |  |  | 5 | 

Reference: patent publication US8283465B2, “Triazolopyridine compound, and action thereof as prolyl hydroxylase inhibitor or erythropoietin production-inducing agent” (Japan Tobacco Inc., priority 2009, dated 2012)
